Data as given in US9789086B1, “N-(5-arylamido-2-methylphenyl)-5-methylisooxazole-4-carboxamide deravative, pharmaceutical acceptable salt thereof, method for preparation therof and FMS kinase inhibitor comprising the same as anactive ingredient” (Industry-University Cooperation Foundation Hanyang …, priority 2014, dated 2017).

Key:
[1] = tested on: A375P cell line; assay: A375P cell line proliferation inhibitory activity (MTT assay); type: cell-based; conditions: A375P cells, 48 hours treatment
Experimental: A375P cell lines were purchased from ATCC and cultured in a DMEM culture medium (containing 10% FBS and 1% penicillin/streptomycin) in the presence of 5% CO2 at 37° C. The cultured A375P cell lines were taken from culture substrate with 0.05% trypsin-0.02% EDTA and plated at a density of 5×10^3 cells per well in 96-well plates.
(§1) In order to measure cell viability, MTT [3-(4,5-dimethylthiazole-2-yl)-2,5-diphenyltetrazolium bromide] activity assay method (Thiazolyl Blue Tetrazolium Bromide, Sigma Aldrich) was used. Cell lines were cultured in 96-well plates for 24 hours and treated with the compounds of Examples previously prepared. For the compound treatment, 10 mM stocks were prepared, serially diluted in DMSO and added by 0.5 μL at 8 points (final concentration of 0.5%). The cell lines in plates treated with the compounds was cultured for 48 hours, then 15 μL of dye was added to each well and cultured for 4 hours. Then, 100 μL of DMSO solvent was added to each well, and the formed solid was dissolved to measure the absorbance. The absorbance was read at a wavelength of 570 nm using EnVision 2103, and the GI 50 value was calculated using GraphPad Prism 4.0 software, and the results are shown in Table 1 below.

[2] = tested on: U937 cell line; assay: U937 cell line proliferation inhibitory activity (MTT assay); type: cell-based; conditions: Homo sapiens, U-937, U937 cells
Experimental: as §1
U937 cell lines were purchased from ATCC and cultured in a RPMI culture medium (containing 10% FBS, 1% penicillin/streptomycin and 25 mM HEPES) in the presence of 5% CO2 at 37° C. The cell line proliferation inhibitory activity for Examples previously prepared was measured using the same MTT activity assay method as the A375P cell line proliferation inhibitory activity assay in Experimental Example 1.

| GI50 [1] | GI50 [2] | SMILES |
| --- | --- | --- |
| 10 to 30 µM | 10 to 30 µM | CCCS(=O)(=O)Nc1ccc(NC(=O)c2cnoc2C)c(C)c1 [Example 43, 5-methyl-N-(2-methyl-4-(propylsulfonamido)phenyl)isoxazole-4-carboxamide] |
| 10 to 30 µM | 10 to 30 µM | Cc1ccc(NC(=O)Cc2ccccc2F)cc1NC(=O)c1cnoc1C [Example 8, N-(5-(2-(2-fluorophenyl)acetamido)-2-methylphenyl)-5-methylisoxazole-4-carboxamide] |
| 10 to 30 µM | 10 to 30 µM | Cc1cc(NC(=O)Nc2cc(Cl)cc(Cl)c2)ccc1NC(=O)c1cnoc1C [Example 41, N-(4-(3-(3,5-dichlorophenyl)ureido)-2-methylphenyl)-5-methylisoxazole-4-carboxamide] |
| 10 to 30 µM | 10 to 30 µM | Cc1ccc(NC(=O)Nc2ccc(Cl)cc2)cc1NC(=O)c1cnoc1C [Example 28, N-(5-(3-(4-chlorophenyl)ureido)-2-methylphenyl)-5-methylisoxazole-4-carboxamide] |
| 1 to 10 µM | 10 to 30 µM | Cc1cc(NC(=O)Nc2ccc(Cl)c(Cl)c2)ccc1NC(=O)c1cnoc1C [Example 40, N-(4-(3-(3,4-dichlorophenyl)ureido)-2-methylphenyl)-5-methylisoxazole-4-carboxamide] |
| 10 to 30 µM | 10 to 30 µM | Cc1ccc(NC(=O)C2Cc3ccccc3N2)cc1NC(=O)c1cnoc1C (stereo not drawn) [Example 19, N-(5-(indoline-2-carboxamido)-2-methylphenyl)-5-methylisoxazole-4-carboxamide] |
| 10 to 30 µM | 10 to 30 µM | Cc1cc(NC(=O)c2ccc(N3CCOCC3)c(C(F)(F)F)c2)ccc1NC(=O)c1cnoc1C [Example 1, 5-methyl-N-(2-methyl-4-(4-morpholino-3-(trifluoromethyl)benzamido)phenyl)isoxazole-4-carboxamide] |
| 10 to 30 µM | 10 to 30 µM | Cc1cc(NC(=O)Nc2cccc(Cl)c2)ccc1NC(=O)c1cnoc1C [Example 37, N-(4-(3-(3-chlorophenyl)ureido)-2-methylphenyl)-5-methylisoxazole-4-carboxamide] |
| 10 to 30 µM | 10 to 30 µM | Cc1ccc(NC(=O)Nc2cc(Cl)cc(Cl)c2)cc1NC(=O)c1cnoc1C [Example 33, N-(5-(3-(3,5-dichlorophenyl)ureido)-2-methylphenyl)-5-methylisoxazole-4-carboxamide] |
| 10 to 30 µM | 10 to 30 µM | CCCS(=O)(=O)Nc1ccc(C)c(NC(=O)c2cnoc2C)c1 [Example 42, 5-methyl-N-(2-methyl-5-(propylsulfonamido)phenyl)isoxazole-4-carboxamide] |
| 10 to 30 µM | 10 to 30 µM | Cc1ccc(NC(=O)Nc2ccc(Cl)c(C(F)(F)F)c2)cc1NC(=O)c1cnoc1C [Example 30, N-(5-(3-(4-chloro-3-(trifluoromethyl)phenyl)ureido)-2-methylphenyl)-5-methylisoxazole-4-carboxamide] |
| 10 to 30 µM | 10 to 30 µM | Cc1ccc(NC(=O)c2cccc(Cl)c2)cc1NC(=O)c1cnoc1C [Example 6, N-(5-(3-chlorobenzamido)-2-methylphenyl)-5-methylisoxazole-4-carboxamide] |
| 10 to 30 µM | 10 to 30 µM | Cc1cc(NC(=O)c2cc(N3CCN(C)CC3)cc(C(F)(F)F)c2)ccc1NC(=O)c1cnoc1C [Example 2, 5-methyl-N-(2-methyl-4-(3-(4-methylpiperazin-1-yl)-5-(trifluoromethyl)benzamido)phenyl)isoxazole-4-carboxamide] |
| 10 to 30 µM | 10 to 30 µM | Cc1ccc(NC(=O)c2ccncc2)cc1NC(=O)c1cnoc1C [Example 20, N-(5-(isonicotinamido)-2-methylphenyl)-5-methylisoxazole-4-carboxamide] |
| 10 to 30 µM | 10 to 30 µM | Cc1cc(NC(=O)Nc2ccccc2F)ccc1NC(=O)c1cnoc1C [Example 38, N-(4-(3-(2-fluorophenyl)ureido)-2-methylphenyl)-5-methylisoxazole-4-carboxamide] |
| 10 to 30 µM | 10 to 30 µM | Cc1ccc(NC(=O)Cc2ccc(-c3ccccc3)cc2)cc1NC(=O)c1cnoc1C [Example 22, N-(5-(2-(biphenyl-4-yl)acetamido)-2-methylphenyl)-5-methylisoxazole-4-carboxamide] |
| 10 to 30 µM | 10 to 30 µM | Cc1cc(NC(=O)Nc2cccc(C(F)(F)F)c2)ccc1NC(=O)c1cnoc1C [Example 36, 5-methyl-N-(2-methyl-4-(3-(3-(trifluoromethyl)phenyl)ureido)phenyl)isoxazole-4-carboxamide] |

| GI50 [1] | GI50 [2] | SMILES |
| --- | --- | --- |
| 10 to 30 µM | < 1 µM | Cc1ccc(NC(=O)c2cc(N3CCN(C)CC3)cc(C(F)(F)F)c2)cc1NC(=O)c1cnoc1C [Example 3, 5-methyl-N-(2-methyl-5-(3-(4-methylpiperazin-1-yl)-5-(trifluoromethyl)benzamido)phenyl)isoxazole-4-carboxamide] |
| 10 to 30 µM | < 1 µM | Cc1ccc(NC(=O)c2cnn(-c3ccccc3)c2C(F)(F)F)cc1NC(=O)c1cnoc1C [Example 23, 5-methyl-N-(2-methyl-5-(1-phenyl-5-(trifluoromethyl)-1H-pyrazole-4-carboxamido)phenyl)isoxazole-4-carboxamide] |
| 10 to 30 µM | 10 to 30 µM | Cc1ccc(NC(=O)Nc2cccc(C(F)(F)F)c2)cc1NC(=O)c1cnoc1C [Example 29, 5-methyl-N-(2-methyl-5-(3-(3-(trifluoromethyl)phenyl)ureido)phenyl)isoxazole-4-carboxamide] |
| 10 to 30 µM | 1 to 10 µM | Cc1ccc(NC(=O)Nc2ccc(Cl)c(Cl)c2)cc1NC(=O)c1cnoc1C [Example 34, N-(5-(3-(3,4-dichlorophenyl)ureido)-2-methylphenyl)-5-methylisoxazole-4-carboxamide] |
| 10 to 30 µM | 10 to 30 µM | Cc1ccc(NC(=O)C2(C)CCc3c(C)c(O)c(C)c(C)c3O2)cc1NC(=O)c1cnoc1C (stereo not drawn) [Example 14, N-(5-(6-hydroxy-2,5,7,8-tetramethylchroman-2-carboxamido)-2-methylphenyl)-5-methylisoxazole-4-carboxamide] |
| 10 to 30 µM | < 1 µM | Cc1ccc(NC(=O)c2cc(N3CCOCC3)cc(C(F)(F)F)c2)cc1NC(=O)c1cnoc1C [Example 44, 5-methyl-N-(2-methyl-5-(3-morpholino-5-(trifluoromethyl)benzamido)phenyl)isoxazole-4-carboxamide] |
| 10 to 30 µM | 10 to 30 µM | Cc1ccc(NC(=O)Cc2c[nH]c3ccccc23)cc1NC(=O)c1cnoc1C [Example 16, N-(5-(2-(1H-indol-3-yl)acetamido)-2-methylphenyl)-5-methylisoxazole-4-carboxamide] |
| 10 to 30 µM | 10 to 30 µM | Cc1cc(NC(=O)Nc2ccc(Cl)cc2)ccc1NC(=O)c1cnoc1C [Example 39, N-(4-(3-(4-chlorophenyl)ureido)-2-methylphenyl)-5-methylisoxazole-4-carboxamide] |
| 10 to 30 µM | < 1 µM | Cc1ccc(NC(=O)c2cc(-n3cncc3C)cc(C(F)(F)F)c2)cc1NC(=O)c1cnoc1C [Example 10, 5-methyl-N-(2-methyl-5-(3-(5-methyl-1H-imidazol-1-yl)-5-(trifluoromethyl)benzamido)phenyl)isoxazole-4-carboxamide] |
| 10 to 30 µM | < 1 µM | Cc1ccc(NC(=O)c2cc(-n3ccnc3C)cc(C(F)(F)F)c2)cc1NC(=O)c1cnoc1C [Example 9, 5-methyl-N-(2-methyl-5-(3-(2-methyl-1H-imidazol-1-yl)-5-(trifluoromethyl)benzamido)phenyl)isoxazole-4-carboxamide] |
| 10 to 30 µM | 10 to 30 µM | Cc1ccc(NC(=O)c2cnccn2)cc1NC(=O)c1cnoc1C [Example 17, 5-methyl-N-(2-methyl-5-(pyrazine-2-carboxamido)phenyl)isoxazole-4-carboxamide] |
| 10 to 30 µM | 10 to 30 µM | Cc1cc(NC(=O)Nc2ccc(Cl)c(C(F)(F)F)c2)ccc1NC(=O)c1cnoc1C [Example 35, N-(4-(3-(4-chloro-3-(trifluoromethyl)phenyl)ureido)-2-methylphenyl)-5-methylisoxazole-4-carboxamide] |
| 10 to 30 µM | 10 to 30 µM | Cc1ccc(NC(=O)c2cnc3ccccc3c2)cc1NC(=O)c1cnoc1C [Example 27, 5-methyl-N-(2-methyl-5-(quinoline-3-carboxamido)phenyl)isoxazole-4-carboxamide] |
| 10 to 30 µM | 10 to 30 µM | Cc1ccc(NC(=O)c2ccc3[nH]nnc3c2)cc1NC(=O)c1cnoc1C [Example 18, N-(5-(1H-benzo[d][1,2,3]triazole-5-carboxamido)-2-methylphenyl)-5-methylisoxazole-4-carboxamide] |
| 10 to 30 µM | 10 to 30 µM | Cc1ccc(NC(=O)c2ccccc2Sc2ccccc2C#N)cc1NC(=O)c1cnoc1C [Example 21, N-(5-(2-(2-cyanophenylthio)benzamido)-2-methylphenyl)-5-methylisoxazole-4-carboxamide] |
| 10 to 30 µM | 10 to 30 µM | Cc1ccc(NC(=O)c2ccc(Cl)cc2)cc1NC(=O)c1cnoc1C [Example 7, N-(5-(4-chlorobenzamido)-2-methylphenyl)-5-methylisoxazole-4-carboxamide] |
